This passage reports MIC99 and Ratio results from ChEMBL document CHEMBL3217538, “Antimycobacterial activity of spirooxindolo-pyrrolidine, pyrrolizine and pyrrolothiazole hybrids obtained by a three-component regio- and stereoselective 1,3-dipolar cycloaddition” (2011).

The term MIC99 denotes an inhibitory concentration at the 99% level, which refers to growth in some studies and to a panel of isolates in others.

≈ marks a conversion by molar mass, not a printed value. A value given as a limit tells only on which side of the number the result lay.

Assay [1] relates to Mycobacterium tuberculosis. Kind of assay: Antimycobacterial activity against Mycobacterium tuberculosis H37Rv by agar dilution method. It is filed as functional. Background: In agar dilution the substance is mixed into plates at graded concentrations.
Assay [2] concerns Mycobacterium tuberculosis. Kind of assay: Ratio of pyrazinamide MIC99 to compound MIC99 for Mycobacterium tuberculosis H37Rv. It counts as functional.

As to `COc1ccc(C2C([N+](=O)[O-])C(c3ccccc3)N[C@@]23C(=O)Nc2ccccc23)cc1` (stereo partly drawn), the MIC99 in assay [1] is > 60.2 µM.

In the case of `O=C1Nc2ccccc2[C@]12NC(c1ccccc1)C([N+](=O)[O-])C2c1ccc(Cl)cc1` (stereo partly drawn), the MIC99 in assay [1] was found to be 29.8 µM (≈ 12.5 µg/mL). Also, in assay [2], the Ratio worked out at 1.7.

Turning to `O=C1Nc2ccccc2[C@]12NC(c1ccccc1)C([N+](=O)[O-])C2c1cccc([N+](=O)[O-])c1` (stereo partly drawn), the MIC99 in assay [1] was found to be 29 µM (≈ 12.5 µg/mL). Moreover, in assay [2], the Ratio was 1.75.

Turning to `O=C1Nc2ccccc2[C@]12NC(c1ccccc1)C([N+](=O)[O-])C2c1cccc(Cl)c1` (stereo partly drawn), the MIC99 in assay [1] was 14.9 µM (≈ 6.26 µg/mL). The Ratio in assay [2] was found to be 3.4.

Take `O=C1Nc2ccccc2[C@]12NC(c1ccccc1)C([N+](=O)[O-])C2c1ccc(F)cc1` (stereo partly drawn): the MIC99 in assay [1] came out at 31 µM (≈ 12.5 µg/mL). In addition, the Ratio in assay [2] came to 1.6.

As to `O=C1Nc2ccccc2[C@]12NC(c1ccccc1)C([N+](=O)[O-])C2c1ccccc1` (stereo partly drawn), in assay [1], the MIC99 was > 64.9 µM.

Take `Cc1ccc(C2C([N+](=O)[O-])C(c3ccccc3)N[C@@]23C(=O)Nc2ccccc23)cc1` (stereo partly drawn): the MIC99 in assay [1] is > 62.6 µM.

`O=C1Nc2ccccc2[C@]12NC(c1ccccc1)C([N+](=O)[O-])C2c1ccc(Br)cc1` (stereo partly drawn) had an MIC99 in assay [1] of 26.9 µM (≈ 12.5 µg/mL). In addition, the Ratio in assay [2] stood at 1.9.

Take `COc1ccc(OC)c(C2C([N+](=O)[O-])C(c3ccccc3)N[C@@]23C(=O)Nc2ccccc23)c1` (stereo partly drawn): the MIC99 in assay [1] was > 56.1 µM.

`COc1ccc(C2C([N+](=O)[O-])C3CCCN3[C@@]23C(=O)Nc2ccccc23)cc1` (stereo partly drawn) displayed an MIC99 in assay [1] of 65.9 µM (≈ 25 µg/mL).

Molecule `O=C1Nc2ccccc2[C@@]12C(c1ccc(Cl)cc1)C([N+](=O)[O-])C1CCCN12` (stereo partly drawn) yielded an MIC99 in assay [1] of 32.6 µM (≈ 12.5 µg/mL). In assay [2], the Ratio came out at 1.6.

Turning to `O=C1Nc2ccccc2[C@@]12C(c1cccc([N+](=O)[O-])c1)C([N+](=O)[O-])C1CCCN12` (stereo partly drawn), in assay [1], the MIC99 turned out to be 63.4 µM (≈ 25 µg/mL).

In assay [1], `O=C1Nc2ccccc2[C@@]12C(c1cccc(Cl)c1)C([N+](=O)[O-])C1CCCN12` (stereo partly drawn) displayed an MIC99 of 32.6 µM (≈ 12.5 µg/mL). Besides, in assay [2], the Ratio is reported as 1.6.

`O=C1Nc2ccccc2[C@@]12C(c1ccc(F)cc1)C([N+](=O)[O-])C1CCCN12` (stereo partly drawn): in assay [1], the MIC99 came out at 68.1 µM (≈ 25 µg/mL).

`O=C1Nc2ccccc2[C@@]12C(c1ccccc1)C([N+](=O)[O-])C1CCCN12` (stereo partly drawn) came in with an MIC99 in assay [1] of 71.6 µM (≈ 25 µg/mL). This MIC99 and that of the molecule before are within 1.5-fold of each other.

Turning to `Cc1ccc(C2C([N+](=O)[O-])C3CCCN3[C@@]23C(=O)Nc2ccccc23)cc1` (stereo partly drawn), in assay [1], the MIC99 amounted to 68.8 µM (≈ 25 µg/mL). The MIC99 values of the last two molecules are within 1.5-fold of each other.

As for `O=C1Nc2ccccc2[C@@]12C(c1ccc(Br)cc1)C([N+](=O)[O-])C1CCCN12` (stereo partly drawn), in assay [1], the MIC99 was 58.4 µM (≈ 25 µg/mL).

Consider `COc1ccc(OC)c(C2C([N+](=O)[O-])C3CCCN3[C@@]23C(=O)Nc2ccccc23)c1` (stereo partly drawn), for which, in assay [1], the MIC99 is > 61.1 µM.

As for `COc1cc(C2C([N+](=O)[O-])C3CCCN3[C@@]23C(=O)Nc2ccccc23)cc(OC)c1OC` (stereo partly drawn), the MIC99 in assay [1] was > 56.9 µM.

Regarding `COc1ccc(C2C([N+](=O)[O-])C3CSCN3[C@@]23C(=O)Nc2ccccc23)cc1` (stereo partly drawn), the MIC99 in assay [1] came to 62.9 µM (≈ 25 µg/mL). In other words, the double-digit micromolar range.

As to `O=C1Nc2ccccc2[C@@]12C(c1ccc(Cl)cc1)C([N+](=O)[O-])C1CSCN12` (stereo partly drawn), the MIC99 in assay [1] was determined as 15.5 µM (≈ 6.23 µg/mL). Further, the Ratio in assay [2] is 3.3.

With `O=C1Nc2ccccc2[C@@]12C(c1cccc([N+](=O)[O-])c1)C([N+](=O)[O-])C1CSCN12` (stereo partly drawn), the MIC99 in assay [1] was 7.6 µM (≈ 3.13 µg/mL). Besides, the Ratio in assay [2] is on record as 6.7.

With `O=C1Nc2ccccc2[C@@]12C(c1cccc(Cl)c1)C([N+](=O)[O-])C1CSCN12` (stereo partly drawn), in assay [1], the MIC99 was 7.8 µM (≈ 3.13 µg/mL). Further, in assay [2], the Ratio is reported as 6.5.

As for `O=C1Nc2ccccc2[C@@]12C(c1ccc(F)cc1)C([N+](=O)[O-])C1CSCN12` (stereo partly drawn), in assay [1], the MIC99 turned out to be 8.2 µM (≈ 3.16 µg/mL). Moreover, the Ratio in assay [2] was found to be 6.2.

With `CC[C@@H](CO)NCCN[C@@H](CC)CO` [ETHAMBUTOL], the MIC99 in assay [1] was found to be 7.6 µM (≈ 1.55 µg/mL).

As for `NNC(=O)c1ccncc1` [ISONIAZID], in assay [1], the MIC99 came out at 0.4 µM (≈ 0.0549 µg/mL).

With `NC(=O)c1cnccn1` [PYRAZINAMIDE], the MIC99 in assay [1] is 50.1 µM (≈ 6.17 µg/mL).
